± gives the expanded uncertainty stated by the source.
Tests used:
[1] = 100 kPa, Liquid; for viscosity: Concentric cylinders viscometry; for mass density: Vibrating tube method
[2] = xn = mol fraction of the nth substance listed; conditions: 100 kPa, Liquid; for viscosity: Concentric cylinders viscometry; for mass density: Vibrating tube method

SMILES: C[n+]1ccn(CCO)c1.F[B-](F)(F)F [1-(2-hydroxyethyl)-3-methylimidazolium tetrafluoroborate]
- viscosity ([1]; 293.15 K): 153.6 ± 12 mPa·s
- mass density ([1]; 293.15 K): 1362.4 ± 1.1 kg/m3
- viscosity ([1]; 298.15 K): 115.1 ± 9.3 mPa·s
- mass density ([1]; 298.15 K): 1358.7 ± 1.1 kg/m3
- viscosity ([1]; 303.15 K): 87.98 ± 7.1 mPa·s
- mass density ([1]; 303.15 K): 1354.8 ± 1.1 kg/m3
- viscosity ([1]; 308.15 K): 68.59 ± 5.5 mPa·s
- mass density ([1]; 308.15 K): 1351.2 ± 1.1 kg/m3
- viscosity ([1]; 313.15 K): 54.81 ± 4.4 mPa·s
- mass density ([1]; 313.15 K): 1347.4 ± 1.1 kg/m3
- viscosity ([1]; 318.15 K): 44.44 ± 3.6 mPa·s
- mass density ([1]; 318.15 K): 1343.7 ± 1.1 kg/m3
- viscosity ([1]; 323.15 K): 36.5 ± 2.9 mPa·s
- mass density ([1]; 323.15 K): 1340.1 ± 1.1 kg/m3
- viscosity ([1]; 328.15 K): 30.46 ± 2.4 mPa·s
- mass density ([1]; 328.15 K): 1336.4 ± 1.1 kg/m3
- viscosity ([1]; 333.15 K): 25.73 ± 2.1 mPa·s
- mass density ([1]; 333.15 K): 1332.8 ± 1.1 kg/m3
- viscosity ([1]; 338.15 K): 21.98 ± 1.8 mPa·s
- mass density ([1]; 338.15 K): 1329.2 ± 1.1 kg/m3
- viscosity ([1]; 343.15 K): 18.95 ± 1.5 mPa·s
- mass density ([1]; 343.15 K): 1325.5 ± 1.1 kg/m3

SMILES: CCCCn1cc[n+](C)c1.F[B-](F)(F)F [1-butyl-3-methylimidazolium tetrafluoroborate]
- viscosity ([1]; 293.15 K): 141.1 ± 12 mPa·s
- mass density ([1]; 293.15 K): 1204 ± 1.1 kg/m3
- viscosity ([1]; 298.15 K): 107.5 ± 8.7 mPa·s
- mass density ([1]; 298.15 K): 1200.5 ± 1.1 kg/m3
- viscosity ([1]; 303.15 K): 83.48 ± 6.7 mPa·s
- mass density ([1]; 303.15 K): 1197 ± 1.1 kg/m3
- viscosity ([1]; 308.15 K): 65.97 ± 5.3 mPa·s
- mass density ([1]; 308.15 K): 1193.4 ± 1.1 kg/m3
- viscosity ([1]; 313.15 K): 53 ± 4.2 mPa·s
- mass density ([1]; 313.15 K): 1189.9 ± 1.1 kg/m3
- viscosity ([1]; 318.15 K): 43.21 ± 3.5 mPa·s
- mass density ([1]; 318.15 K): 1186.3 ± 1.1 kg/m3
- viscosity ([1]; 323.15 K): 35.7 ± 2.9 mPa·s
- mass density ([1]; 323.15 K): 1182.8 ± 1.1 kg/m3
- viscosity ([1]; 328.15 K): 29.86 ± 2.4 mPa·s
- mass density ([1]; 328.15 K): 1179.3 ± 1.1 kg/m3
- viscosity ([1]; 333.15 K): 25.26 ± 2 mPa·s
- mass density ([1]; 333.15 K): 1175.8 ± 1.1 kg/m3
- viscosity ([1]; 338.15 K): 21.59 ± 1.7 mPa·s
- mass density ([1]; 338.15 K): 1172.3 ± 1.1 kg/m3
- viscosity ([1]; 343.15 K): 18.62 ± 1.5 mPa·s
- mass density ([1]; 343.15 K): 1168.9 ± 1.1 kg/m3

SMILES: CCCCn1cc[n+](C)c1.F[B-](F)(F)F [1-butyl-3-methylimidazolium tetrafluoroborate] + CCCC[n+]1ccccc1.F[B-](F)(F)F
- viscosity ([2]; 293.15 K, x1 = 1): 141.1 ± 12 mPa·s
- mass density ([2]; 293.15 K, x1 = 1): 1204 ± 1.1 kg/m3
- viscosity ([2]; 298.15 K, x1 = 1): 107.5 ± 8.7 mPa·s
- mass density ([2]; 298.15 K, x1 = 1): 1200.5 ± 1.1 kg/m3
- viscosity ([2]; 303.15 K, x1 = 1): 83.48 ± 6.7 mPa·s
- mass density ([2]; 303.15 K, x1 = 1): 1197 ± 1.1 kg/m3
- viscosity ([2]; 308.15 K, x1 = 1): 65.97 ± 5.3 mPa·s
- mass density ([2]; 308.15 K, x1 = 1): 1193.4 ± 1.1 kg/m3
- viscosity ([2]; 313.15 K, x1 = 1): 53 ± 4.2 mPa·s
- mass density ([2]; 313.15 K, x1 = 1): 1189.9 ± 1.1 kg/m3
- viscosity ([2]; 318.15 K, x1 = 1): 43.21 ± 3.5 mPa·s
- mass density ([2]; 318.15 K, x1 = 1): 1186.3 ± 1.1 kg/m3
- viscosity ([2]; 323.15 K, x1 = 1): 35.7 ± 2.9 mPa·s
- mass density ([2]; 323.15 K, x1 = 1): 1182.8 ± 1.1 kg/m3
- viscosity ([2]; 328.15 K, x1 = 1): 29.86 ± 2.4 mPa·s
- mass density ([2]; 328.15 K, x1 = 1): 1179.3 ± 1.1 kg/m3
- viscosity ([2]; 333.15 K, x1 = 1): 25.26 ± 2 mPa·s
- mass density ([2]; 333.15 K, x1 = 1): 1175.8 ± 1.1 kg/m3
- viscosity ([2]; 338.15 K, x1 = 1): 21.59 ± 1.7 mPa·s
- mass density ([2]; 338.15 K, x1 = 1): 1172.3 ± 1.1 kg/m3
- viscosity ([2]; 343.15 K, x1 = 1): 18.62 ± 1.5 mPa·s
- mass density ([2]; 343.15 K, x1 = 1): 1168.9 ± 1.1 kg/m3

SMILES: CCCCn1cc[n+](C)c1.F[B-](F)(F)F [1-butyl-3-methylimidazolium tetrafluoroborate] + C[n+]1ccn(CCO)c1.F[B-](F)(F)F
- viscosity ([2]; 293.15 K, x2 = 0): 141.1 ± 12 mPa·s
- mass density ([2]; 293.15 K, x2 = 0): 1204 ± 1.1 kg/m3
- viscosity ([2]; 298.15 K, x2 = 0): 107.5 ± 8.7 mPa·s
- mass density ([2]; 298.15 K, x2 = 0): 1200.5 ± 1.1 kg/m3
- viscosity ([2]; 303.15 K, x2 = 0): 83.48 ± 6.7 mPa·s
- mass density ([2]; 303.15 K, x2 = 0): 1197 ± 1.1 kg/m3
- viscosity ([2]; 308.15 K, x2 = 0): 65.97 ± 5.3 mPa·s
- mass density ([2]; 308.15 K, x2 = 0): 1193.4 ± 1.1 kg/m3
- viscosity ([2]; 313.15 K, x2 = 0): 53 ± 4.2 mPa·s
- mass density ([2]; 313.15 K, x2 = 0): 1189.9 ± 1.1 kg/m3
- viscosity ([2]; 318.15 K, x2 = 0): 43.21 ± 3.5 mPa·s
- mass density ([2]; 318.15 K, x2 = 0): 1186.3 ± 1.1 kg/m3
- viscosity ([2]; 323.15 K, x2 = 0): 35.7 ± 2.9 mPa·s
- mass density ([2]; 323.15 K, x2 = 0): 1182.8 ± 1.1 kg/m3
- viscosity ([2]; 328.15 K, x2 = 0): 29.86 ± 2.4 mPa·s
- mass density ([2]; 328.15 K, x2 = 0): 1179.3 ± 1.1 kg/m3
- viscosity ([2]; 333.15 K, x2 = 0): 25.26 ± 2 mPa·s
- mass density ([2]; 333.15 K, x2 = 0): 1175.8 ± 1.1 kg/m3
- viscosity ([2]; 338.15 K, x2 = 0): 21.59 ± 1.7 mPa·s
- mass density ([2]; 338.15 K, x2 = 0): 1172.3 ± 1.1 kg/m3
- viscosity ([2]; 343.15 K, x2 = 0): 18.62 ± 1.5 mPa·s
- mass density ([2]; 343.15 K, x2 = 0): 1168.9 ± 1.1 kg/m3

SMILES: CCCC[n+]1ccccc1.F[B-](F)(F)F [1-butylpyridinium tetrafluoroborate]
- viscosity ([1]; 293.15 K): 228.9 ± 19 mPa·s
- mass density ([1]; 293.15 K): 1216.6 ± 1.1 kg/m3
- viscosity ([1]; 298.15 K): 166.9 ± 14 mPa·s
- mass density ([1]; 298.15 K): 1213.1 ± 1.1 kg/m3
- viscosity ([1]; 303.15 K): 124.5 ± 10 mPa·s
- mass density ([1]; 303.15 K): 1209.6 ± 1.1 kg/m3
- viscosity ([1]; 308.15 K): 94.97 ± 7.6 mPa·s
- mass density ([1]; 308.15 K): 1206.2 ± 1.1 kg/m3
- viscosity ([1]; 313.15 K): 73.94 ± 5.9 mPa·s
- mass density ([1]; 313.15 K): 1202.8 ± 1.1 kg/m3
- viscosity ([1]; 318.15 K): 58.64 ± 4.7 mPa·s
- mass density ([1]; 318.15 K): 1199.4 ± 1.1 kg/m3
- viscosity ([1]; 323.15 K): 47.29 ± 3.8 mPa·s
- mass density ([1]; 323.15 K): 1196 ± 1.1 kg/m3
- viscosity ([1]; 328.15 K): 38.71 ± 3.1 mPa·s
- mass density ([1]; 328.15 K): 1192.6 ± 1.1 kg/m3
- viscosity ([1]; 333.15 K): 32.12 ± 2.6 mPa·s
- mass density ([1]; 333.15 K): 1189.2 ± 1.1 kg/m3
- viscosity ([1]; 338.15 K): 26.98 ± 2.2 mPa·s
- mass density ([1]; 338.15 K): 1185.8 ± 1.1 kg/m3
- viscosity ([1]; 343.15 K): 22.97 ± 1.8 mPa·s
- mass density ([1]; 343.15 K): 1182.5 ± 1.1 kg/m3

SMILES: CCCC[n+]1ccccc1.F[B-](F)(F)F [1-butylpyridinium tetrafluoroborate] + C[n+]1ccn(CCO)c1.F[B-](F)(F)F
- viscosity ([2]; 293.15 K, x2 = 0): 228.9 ± 19 mPa·s
- mass density ([2]; 293.15 K, x2 = 0): 1216.6 ± 1.1 kg/m3
- viscosity ([2]; 298.15 K, x2 = 0): 166.9 ± 14 mPa·s
- mass density ([2]; 298.15 K, x2 = 0): 1213.1 ± 1.1 kg/m3
- viscosity ([2]; 303.15 K, x2 = 0): 124.5 ± 10 mPa·s
- mass density ([2]; 303.15 K, x2 = 0): 1209.6 ± 1.1 kg/m3
- viscosity ([2]; 308.15 K, x2 = 0): 94.97 ± 7.6 mPa·s
- mass density ([2]; 308.15 K, x2 = 0): 1206.2 ± 1.1 kg/m3
- viscosity ([2]; 313.15 K, x2 = 0): 73.94 ± 5.9 mPa·s
- mass density ([2]; 313.15 K, x2 = 0): 1202.8 ± 1.1 kg/m3
- viscosity ([2]; 318.15 K, x2 = 0): 58.64 ± 4.7 mPa·s
- mass density ([2]; 318.15 K, x2 = 0): 1199.4 ± 1.1 kg/m3
- viscosity ([2]; 323.15 K, x2 = 0): 47.29 ± 3.8 mPa·s
- mass density ([2]; 323.15 K, x2 = 0): 1196 ± 1.1 kg/m3
- viscosity ([2]; 328.15 K, x2 = 0): 38.71 ± 3.1 mPa·s
- mass density ([2]; 328.15 K, x2 = 0): 1192.6 ± 1.1 kg/m3
- viscosity ([2]; 333.15 K, x2 = 0): 32.12 ± 2.6 mPa·s
- mass density ([2]; 333.15 K, x2 = 0): 1189.2 ± 1.1 kg/m3
- viscosity ([2]; 338.15 K, x2 = 0): 26.98 ± 2.2 mPa·s
- mass density ([2]; 338.15 K, x2 = 0): 1185.8 ± 1.1 kg/m3
- viscosity ([2]; 343.15 K, x2 = 0): 22.97 ± 1.8 mPa·s
- mass density ([2]; 343.15 K, x2 = 0): 1182.5 ± 1.1 kg/m3
